These results are taken from article PMC8395886, “Square-Planar vs. Trigonal Bipyramidal Geometry in Pt(II) Complexes Containing Triazole-Based Glucose Ligands as Potential Anticancer Agents” (International Journal of Molecular Sciences, 2021).

In general, IC50 refers to the concentration that gives 50% inhibition.

Data set [1] has as its system H9c2 (rat cardiomyoblast cells). The data set can be described thus: MTT cytotoxicity assay on H9c2 cells. The data set is classed as cell-based. The settings on record: 48 h incubation. For orientation: Formazan colour is commonly taken as a measure of viable cells.
Description: (§6) A431, H9c2, and MCF7 cells were purchased from American Type Culture Collection (ATCC). HaCaT cells were from Innoprot (Derio, Spain). Cells were cultured in DMEM (Sigma-Aldrich, St. Louis, MO, USA), supplemented with 10% fetal bovine serum (HyClone, Thermo Scientific, Logan, UT, USA) and antibiotics in a 5% CO2 humidified atmosphere at 37 °C. The growth medium of H9c2 cells was implemented with 2 mM L-glutamine and 2 mM sodium pyruvate. Cells were seeded in 96-well plates at a density of 2.5 × 10^3 cells per well. Different drugs were added at increasing concentrations 24 h after seeding for dose-dependent assays. […] After 48 h incubation, cell viability was assessed by MTT assay, as described in a previous study [30]. Control experiments were performed by either growing cells in the absence of the compound or by supplementing the cell cultures with identical volumes of buffer (water:acetone, 1:1 v/v). Each value is the mean of three independent experiments, each with three determinations. Significance was determined by Student’s t-test.
Data set [2] relates to A431 (epidermoid carcinoma cells). In words: MTT cytotoxicity assay on A431 cells. The settings on record: for Selectivity Index H9c2/A431 / Selectivity Index HaCaT/A431: IC50 immortalized cells/IC50 cancer cells; for IC50: 48 h incubation. The data set is classed as cell-based, human.
Description: as §6
The subject of data set [3] is HaCaT (human keratinocyte cells). Particulars: 48 h incubation; read-out: MTT IC50 48 h, HaCaT; cited from earlier work.
For data set [4], the system named is A431 (epidermoid carcinoma cells). The settings on record: 48 h incubation; read-out: MTT IC50 48 h, A431; cited from earlier work.
The test system of data set [5] is MCF-7 (breast cancer cells). In words: MTT cytotoxicity assay on MCF7 cells. The data set is classed as cell-based, human. Particulars: for IC50: 48 h incubation; for Selectivity Index H9c2/MCF7 / Selectivity Index HaCaT/MCF7: IC50 immortalized cells/IC50 cancer cells.
Description: as §6
The test system of data set [6] is MCF-7, A431, H9c2 and HaCaT cells. In words: MTT assay, all the analyzed cell lines (statement in words). The data set is classed as cell-based. Particulars: 48 h. The method, then: The biological effect of the Pt-compounds was tested on two human tumor cell lines, MCF-7 (breast cancer cells) and A431 (epidermoid carcinoma cells), and two non-tumorigenic cell lines, H9c2 (rat cardiomyoblast cells), and HaCaT (human keratinocyte cells), using the MTT assay. […] Indeed, due to their inertness towards the substitution of the sugar ligand, their biological activity can be influenced by the nature of the sugar ligand, whose presence in the complex can affect its internalization or mechanism of action once inside the cell. On the other hand, in the case of the five-coordinate complexes, the loss of the sugar tag plausibly determines their substantial leveling of activities. […] The behavior of 4Pt-im was very similar to that of 4Pt-py.
(§1) A431, H9c2, and MCF7 cells were purchased from American Type Culture Collection (ATCC). HaCaT cells were from Innoprot (Derio, Spain). Cells were cultured in DMEM (Sigma-Aldrich, St. Louis, MO, USA), supplemented with 10% fetal bovine serum (HyClone, Thermo Scientific, Logan, UT, USA) and antibiotics in a 5% CO2 humidified atmosphere at 37 °C. The growth medium of H9c2 cells was implemented with 2 mM L-glutamine and 2 mM sodium pyruvate. […] After 48 h incubation, cell viability was assessed by MTT assay, as described in a previous study. […] Significance was determined by Student’s t-test.

Data set [7] relates to HaCaT (human keratinocyte cells). The data set can be described thus: MTT cytotoxicity assay on HaCaT cells. The data set is classed as cell-based. Particulars: 48 h incubation.
Description: as §6
The nature of data set [8]: In-solution stability by 1H-NMR over time. It is filed as physicochemical. The protocol: To compare the solution stability of the complexes, ^1H-NMR and UV–vis spectra over time were recorded for 4Pt type species dissolved in diverse aqueous (phosphate buffer, PB; pH 7.4): organic solvent mixtures, i.e., 1:1 v/v D2O:acetone-d6; 9:1 v/v PB:DMSO-d6; 1:1 v/v PB:DMSO-d6 and DMSO-d6. These solvents were selected to verify the stability in pseudo-physiological conditions in the presence of solvents with different coordinating properties and concentrations.
The appropriate 4Pt complex (5 mg) was dissolved in 0.5 mL of DMSO-d6 or acetone-d6. Calculated volumes of solution were diluted to 600 µL with the appropriate volumes of PB in D2O (25 mM, pH 7.4) and/or DMSO-d6 to provide a 1 mM solution of the complex with the appropriate v/v ratio of solvents. Samples were incubated at 37 °C, and NMR spectra were recorded at different times.

Data set [9] has as its system A431 cells. The settings on record: IC50 value (12 µM) and 20 µM, 48 h. The protocol: (§2) The activation of the apoptotic pathway was analyzed by Western blotting and an analysis of the mitochondrial potential as it is well known that mitochondrial outer membrane permeabilization is essential to initiate mitochondrial apoptosis.
Each value is the mean of three independent experiments, each with three determinations. Significance was determined by Student’s t-test.
(§3) A431 cells were incubated with 12 μM of 4Pt-py for 48 h. (A,B) Analysis by Western blotting of pro-caspase-3 and -9. Β-actin or GAPDH was used as the loading control.

Data set [10] concerns A431 cells. The data set can be described thus: LDH release (necrosis). It is filed as cell-based, human. Particulars: 10 and 20 µM, 48 h. The protocol:
(§4) The cell death mechanism induced by 4Pt-py was analyzed on A431 cells. First, the internalization process of 4Pt-py was evaluated by studying the involvement of GLUT receptors. In particular, 4Pt-py internalization and cytotoxicity were tested using quercetin as a glucose transporter inhibitor [24, 30, 42]. […] The 10 µM concentration used was very similar to the IC50 value, and then, a double value (20 µM) was also used to definitely exclude necrosis at very high concentrations.
The occurrence of necrosis was determined by measuring the release of lactate dehydrogenase (LDH) in the culture medium, as described by Sucha et al.. The LDH content of the medium from untreated cells was referred to as a spontaneous release, whereas the LDH total cellular content was determined upon cell lysis. The percentage of LDH release was calculated as:(1) LDH release % = [experimental−spontaneus release/total content−spontaneous release]×100
Figure 8 Analysis of the mechanism of action of 4Pt-py. (A) Glucose-transporter-dependent cytotoxicity of 4Pt-py on A431 cells. […] Cell viability was assessed using the MTT assay after 48 h incubation. […] (B) Cells were incubated with increasing amounts of 4Pt-py for 48 h, and the release of LDH was measured. […] The % of LDH release was calculated as described in the Materials and Methods section.

The test system of data set [11] is procaspase-3. Particulars: A431 cells, 12 μM, 48 h. The method, then:
as §2
(§5) A431 cells were plated at a density of 3 × 10^5 cells cm^−2 in a complete medium for 24 h and then treated for 48 h with 12 µM 4Pt-py. At the end of the incubation, both untreated and treated cells were analyzed, as described previously for Western blot analyses. Upon the determination of total protein concentration in the supernatant by the Bradford assay, samples were analyzed by SDS-PAGE and Western blot using specific antibodies directed towards procaspase-3 or -9 (Cell Signal Technology, Danvers, MA, USA). β-actin (Sigma-Aldrich) or GAPDH (Thermo Fisher, Rockford, IL, USA) was used as the loading control. Each value is the mean of three independent experiments, each with three determinations. Significance was determined by Student’s t-test.
as §3

Data set [12] relates to procaspase-9. Particulars: A431 cells, 12 μM, 48 h. The protocol: as §2, §5, §3
Data set [13] relates to A431 cells. In words: GLUT1-inhibitor-mediated cytotoxicity assay (quercetin, MTT). It is filed as cell-based, human. The method, then: as §4, §1
Figure 8 Analysis of the mechanism of action of 4Pt-py. […] Cell viability was assessed using the MTT assay after 48 h incubation. […] (B) Cells were incubated with increasing amounts of 4Pt-py for 48 h, and the release of LDH was measured. […] The % of LDH release was calculated as described in the Materials and Methods section.

Molecules are shown by their SMILES. Where two headings read alike, the source gives them in different places.

For the molecule `N.N.[Cl][Pt][Cl]` [Cisplatin, reference compound], the IC50 in [1] is 8 ± 2.1 µM; in data set [3], 6.6 ± 0.3 µM; in [4], 39 ± 12 µM; in data set [5], 18 ± 1.6 µM. Also, the “Selectivity Index H9c2/A431” value in [2] stood at 0.2. Also, the “Selectivity Index HaCaT/A431” value in data set [2] is listed as 0.17. Also, the “Selectivity Index H9c2/MCF7” value in data set [5] worked out at 0.44.
In the case of `Cn1c[n+]([Pt-2]2([CH3])[n+]3cccc4ccc5ccc[n+]2c5c43)cc1-c1cn([C@@H]2O[C@H](CO)[C@@H](O)[C@H](O)[C@H]2O)nn1.O=S(=O)([O-])C(F)(F)F` [4Pt-imdep], the IC50 in data set [1], in data set [7], in [2] and in data set [5] was > 200 µM in each case. The “Toxic activity (in words)” value in [6] is given as “No toxic activity was observed”.
In data set [1], `CC(=O)OC[C@H]1O[C@@H](n2cc(-c3c[n+]([Pt-2]4([CH3])[n+]5cccc6ccc7ccc[n+]4c7c65)cn3C)nn2)[C@H](OC(C)=O)[C@@H](OC(C)=O)[C@@H]1OC(C)=O.O=S(=O)([O-])C(F)(F)F` [4Pt-im] showed an IC50 of 53 ± 11 µM. In addition, it took 27 ± 7 µM to reach half-maximal inhibition in data set [7] (IC50). For the same molecule, the “Structural variations in solution (1H-NMR)” value in [8] (1:1 v/v D2O:acetone-d6, over 3 days) is on record as “No appreciable structural variations”. Further, in data set [2], the concentration for half-maximal inhibition (IC50) came out at 16 ± 8 µM, the “Selectivity Index H9c2/A431” value is reported as 3.3 and the “Selectivity Index HaCaT/A431” value came to 1.69. For the same molecule, in data set [5], 43 ± 7 µM corresponded to half-maximal inhibition (IC50), the “Selectivity Index H9c2/MCF7” value is recorded as 1.23 and the “Selectivity Index HaCaT/MCF7” value turned out to be 0.63.
For the molecule `CC(=O)OC[C@H]1O[C@@H](n2cc(-c3ccc[n+]([Pt-2]4([CH3])[n+]5cccc6ccc7ccc[n+]4c7c65)c3)nn2)[C@H](OC(C)=O)[C@@H](OC(C)=O)[C@@H]1OC(C)=O.O=S(=O)([O-])C(F)(F)F` [4Pt-py], the “Mitochondrial potential (Δψm)” value in data set [9] is “significant decrease”. The same molecule yielded an IC50 in [1] of 22 ± 10 µM. The IC50 in [7] was 66 ± 11 µM. For the same molecule, the “Time to equilibrium of sugar ligand/DMSO exchange” value in data set [8] (1:1 v/v PB:DMSO-d6, 37 °C) is given as 24 h. Moreover, the LDH release entry in [10] was “no LDH release was observed”. In [2], inhibition was half-maximal at 12 ± 2 µM (IC50), the “Selectivity Index H9c2/A431” value was 1.83 and the “Selectivity Index HaCaT/A431” value came to 5.5. For the same molecule, in data set [11], the Pro-caspase-3 signal entry is given as “small but significant decrease”. Moreover, the Pro-caspase-9 signal result in data set [12] is on record as “small but significant decrease”. The “Inhibition of cytotoxicity by glucose transporter inhibitor quercetin” value in data set [13] (A431 cells, 0.5–200 μM compound ± 5 μM quercetin, 48 h) is listed as “no inhibition of cytotoxicity was observed in the presence of quercetin”. In data set [5], the half-maximal inhibitory concentration (IC50) was 35 ± 4 µM, the “Selectivity Index H9c2/MCF7” value was 0.63 and the “Selectivity Index HaCaT/MCF7” value worked out at 1.88.
On to `O=c1c(O)c(-c2ccc(O)c(O)c2)oc2cc(O)cc(O)c12` [quercetin, reference compound], for which the “Lethality of quercetin alone” value in data set [13] (5 μM, data not shown) was “non-lethal concentration”.
